In ChEMBL document CHEMBL1127974, “Design, synthesis, and activity of conformationally-constrained macrocyclic peptide-based inhibitors of HIV protease” (Bioorg Med Chem Lett, 1994):

Tests used:
MT2 = assay: Effective concentration against HIV infected MT-2 cell line; type: functional, cell-based; conditions: Homo sapiens
[1] = target: T1, Human immunodeficiency virus type 1 protease (Human immunodeficiency virus 1, UniProt Q72874); assay: In vitro inhibition HIV-1 IIIB protease.
[2] = target: T1, Human immunodeficiency virus type 1 protease; assay: In vitro inhibitory activity of compound against HIV protease from BRU (IIIB) strain of HIV- 1 virus was determined

| Structure (SMILES) | EC50 (MT2) [nM] | IC50 [1] [nM] | IC50 [2] [nM] |
| --- | --- | --- | --- |
| CCCCCCC(=O)N[C@H](C(=O)N[C@@H](Cc1ccccc1)[C@H](O)CN1CC2CCCCC2C[C@H]1C(=O)NC(C)(C)C)C(C)C (stereo partly drawn) | 378 | 6 | – |
| CC(C)(C)NC(=O)[C@@H]1C[C@@H]2CCCC[C@@H]2CN1C[C@@H](O)[C@@H]1Cc2ccc(cc2)OCCCCOc2cc3ccccc3cc2C(=O)N[C@@H](CC(N)=O)C(=O)N1 | 315 | 88 | – |
| CC(C)[C@@H]1NC(=O)CCCCCCOc2ccc(cc2)C[C@@H]([C@H](O)CN2CC3CCCCC3C[C@H]2C(=O)NC(C)(C)C)NC1=O (stereo partly drawn) | 4 | 1 | – |
| CC(C)(C)NC(=O)[C@@H]1C[C@@H]2CCCC[C@@H]2CN1C[C@@H](O)[C@H](Cc1ccccc1)NC(=O)[C@H](CC(N)=O)NC(=O)c1ccc2ccccc2n1 | 5 | – | – |
| CC(C)[C@H](NC(=O)c1ccc2ccccc2c1)C(=O)N[C@@H](Cc1ccccc1)[C@H](O)CN1CC2CCCCC2C[C@H]1C(=O)NC(C)(C)C (stereo partly drawn) | 8 | 0.9 | – |
| CC(C)(C)NC(=O)[C@@H]1CCCN1C[C@@H](O)[C@@H]1Cc2ccc(cc2)OCCCCOc2cc3ccccc3cc2C(=O)N[C@@H](CC(N)=O)C(=O)N1 | – | 900 | – |
| CC(C)(C)NC(=O)[C@@H]1CCCN1C[C@@H](O)[C@@H]1Cc2ccc(cc2)OCCCOc2cc3ccccc3cc2C(=O)N[C@@H](CC(N)=O)C(=O)N1 | – | 400 | – |
| CC(C)(C)NC(=O)[C@@H]1CCCN1C[C@@H](O)[C@@H]1Cc2ccc(cc2)OCCOc2cc3ccccc3cc2C(=O)N[C@@H](CC(N)=O)C(=O)N1 | – | 450 | – |
| CC(C)[C@@H]1NC(=O)c2ccccc2OCCCOc2ccc(cc2)C[C@@H]([C@H](O)CN2CC3CCCCC3C[C@H]2C(=O)NC(C)(C)C)NC1=O (stereo partly drawn) | 20 | 8 | – |
| CC(C)(C)NC(=O)[C@@H]1C[C@@H]2CCCC[C@@H]2CN1C[C@@H](O)[C@@H]1Cc2ccc(cc2)OCCCOc2cc3ccccc3cc2C(=O)N[C@@H](CC(N)=O)C(=O)N1 | 14 | 10 | – |
| CC(C)[C@@H]1NC(=O)/C=C\CCCCCOc2ccc(cc2)C[C@@H]([C@H](O)CN2CC3CCCCC3C[C@H]2C(=O)NC(C)(C)C)NC1=O (stereo partly drawn) | 216 | 25 | – |
| CC(C)[C@@H]1NC(=O)/C=C\CCCCOc2ccc(cc2)C[C@@H]([C@H](O)CN2CC3CCCCC3C[C@H]2C(=O)NC(C)(C)C)NC1=O (stereo partly drawn) | 31 | – | 9 |
| CC(C)[C@@H]1NC(=O)CCCCCCCOc2ccc(cc2)C[C@@H]([C@H](O)CN2CC3CCCCC3C[C@H]2C(=O)NC(C)(C)C)NC1=O (stereo partly drawn) | 26 | 3.4 | – |
| CC(=O)N[C@H](C(=O)N[C@@H](Cc1ccccc1)[C@H](O)CN1CC2CCCCC2C[C@H]1C(=O)NC(C)(C)C)C(C)C (stereo partly drawn) | 29 | 3 | – |
| CC(C)[C@@H]1NC(=O)CCCCCOc2ccc(cc2)C[C@@H]([C@H](O)CN2CC3CCCCC3C[C@H]2C(=O)NC(C)(C)C)NC1=O (stereo partly drawn) | 8 | 1.5 | – |
| CC(C)[C@@H]1NC(=O)/C=C\CCCOc2ccc(cc2)C[C@@H]([C@H](O)CN2CC3CCCCC3C[C@H]2C(=O)NC(C)(C)C)NC1=O (stereo partly drawn) | 36 | 7.3 | – |
| CC(C)(C)NC(=O)[C@@H]1C[C@@H]2CCCC[C@@H]2CN1C[C@@H](O)[C@@H]1Cc2ccc(cc2)OCCOc2cc3ccccc3cc2C(=O)N[C@@H](CC(N)=O)C(=O)N1 | 18 | 13 | – |
| CC(C)(C)NC(=O)[C@@H]1CCCN1C[C@H](O)[C@@H]1Cc2ccc(cc2)OCCCOc2cc3ccccc3cc2C(=O)N[C@@H](CC(N)=O)C(=O)N1 | – | 90000 | – |
| CC(C)[C@@H]1NC(=O)c2cc3ccccc3cc2OCCCOc2ccc(cc2)C[C@@H]([C@H](O)CN2CC3CCCCC3C[C@H]2C(=O)NC(C)(C)C)NC1=O (stereo partly drawn) | 17 | 5.5 | – |
